Laboratory results taken from patent US20230094753A1, “NANOSTRUCTURE LIPID CARRIER DELIVERY SYSTEM, COMPOSITION, AND METHODS” (priority 2020, published 2023).

Assay: CBD solubility in lipid excipients (about 0.345 g CBD exposed to 10 ml lipid)
Assay type: physicochemical
Details: approx. 0.345 g CBD in 10 ml
Description: Approximately 0.345 g of CBD was exposed to 10 ml of the listed lipid and solubility was assessed.

In the case of `C=C(C)[C@@H]1CCC(C)=C[C@H]1c1c(O)cc(CCCCC)cc1O` [CBD, cannabidiol], the SOLUBILITY (solvent 1: Apricot Kernel Oil PEG-6 Esters) is reported as “Medium CBD Solubility”, the SOLUBILITY (solvent 2: Corn Oil PEG-6 Ester) is reported as “Medium CBD Solubility” and the SOLUBILITY (solvent 3: Ethoxydiglycol) is reported as “Stability Problematic”. The SOLUBILITY (solvent 4: Glycerine soja (Soyean) oil (and) Glyceryl Distearate (and) Polyglyceryl-3 Dioleate) was “Medium CBD Solubility”, the SOLUBILITY (solvent 5: Glyceryl Linoleate) was “Bad CBD Solubility” and the SOLUBILITY (solvent 6: Glyceryl Oleate) was “Bad CBD Solubility”. The SOLUBILITY (solvent 7: PEG-8 Caprylic/Capric Glycerides) was “Stability Problematic”, the SOLUBILITY (solvent 8: Polyglyceryl-3-diolate) was “Bad CBD Solubility” and the SOLUBILITY (solvent 9: Propylene Glycol Caprate) was “Good CBD Solubility”. The SOLUBILITY (solvent 10: Propylene Glycol Laurate) was “Medium CBD Solubility”, the SOLUBILITY (solvent 13: PEG-8) was “Medium CBD Solubility” and the SOLUBILITY (solvent 18: Caprylic/Capric Triglyceride) was “Medium CBD Solubility”. The SOLUBILITY (solvent 19: PEG-8 Carylic/Capric Glycerides) was “Good CBD Solubility”, the SOLUBILITY (solvent 20: Glyceryl Caprylate/Caprate) was “Medium CBD Solubility” and the SOLUBILITY (solvent 21: Propylene Glycol Monocaprylate) was “Good CBD Solubility”. For the same compound, the SOLUBILITY (solvent 22: Olea Europaea (Olive) Oil) was “Bad CBD Solubility” and the SOLUBILITY (solvent 23: Glycine Soja (Soybean) Oil) was “Medium CBD Solubility”.
